Measurements published in patent publication US9334280B2, “Synthetic rigidin analogues as anticancer agents, salts, solvates and prodrugs thereof, and method of producing same” (New Mexico Technical Research Foundation, priority 2012, dated 2016).

Legend:
[1] = tested on: UM-SCC22A head and neck cancer cells; assay: MTT antiproliferative assay, UM-SCC22A; type: cell-based; conditions: Table 1A, 48 h, read-out: Concentration required to reduce the viability of cells by 50%, UM-SCC22A
Description: (§1) To evaluate antiproliferative properties of the compounds of Formula I, mitochondrial dehydrogenase activities were measured using the MTT assay. The cell lines were prepared by trypsinizing and seeding […] cells per well into microplates. All compounds were reconstituted in dimethyl sulfoxide (DMSO) at a concentration of either 100 mM or 25 mM prior to treatment. The cells were grown for 24 hrs before treatment at concentrations ranging from 0.004 to 100 microM and incubated for 48 hrs in 200 microL media. 20 microL of MTT reagent in serum free medium (5 mg/mL) was added to each well and incubated further for 2 hrs. Media was removed and the resulting formazan crystals were re-solubilized in 100 microL of DMSO and the optical density (OD) was measured using a Thermomax Molecular Device plate reader at a wavelength of 490 nm. The experiments were performed in quadruplicate and repeated at least twice for each compound per cell line. Cells treated with 0.1% DMSO were used as a negative control, while phenyl arsine oxide (PAO) was used as a positive killing control.

[2] = tested on: MCF-7 mammary gland adenocarcinoma cells; assay: MTT antiproliferative assay, MCF-7; type: cell-based; conditions: Homo sapiens, MCF7; Table 1; 48 h treatment, MTT, ± SD; read-out: GI50 in vitro Values, MCF-7
In short: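 Cells were seeded at 4×10^3 per well, grown 24 h, then treated at 0.04–100 μM for 48 h; HeLa in DMEM and MCF-7 in RPMI, each with 10% FBS. MTT for 2 h, formazan dissolved in DMSO, A490 read; quadruplicate, at least two repeats, 0.1% DMSO vehicle control and 1 μM phenyl arsine oxide as positive killing control.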

[3] = tested on: A549 non-small-cell lung cancer cells; assay: MTT antiproliferative assay, A549; type: cell-based; conditions: Homo sapiens, Table 2, 48 h, read-out: GI50 in vitro values, A549
Description: as §1
(§2) Human cancer cell lines were obtained from the American Type Culture Collection (ATCC, Manassas, Va., USA), the European Collection of Cell Culture (ECACC, Salisbury, UK) and the Deutsche Sammlung von Mikroorganismen and Zellkulturen (DSMZ, Braunschweig, Germany). Human cervical adenocarcinoma HeLa cells were cultured in DMEM supplemented with 10% fetal bovine serum (FBS). Human mammary carcinoma MCF-7 cells were cultured in RPMI supplemented with 10% FBS. The U87 and U373 cells were cultured in DMEM culture medium (Lonza code 12-136F, Vervier, Belgium), while the SKMEL-28 and A549 cells were cultured in RPMI culture medium (Lonza; code 12-115F) supplemented with 10% heat-inactivated FBS (Lonza, FBS South America code DE14-801F). […] All cell lines were cultured in T25 flasks, maintained and grown at 37° C., 95% humidity, 5% CO2.
(§3) To evaluate antiproliferative properties of the synthesized compounds, the MTT assay was used. The cell lines were assessed by trypsinizing each cell line and seeding 4×10^3 cells per well into 96-well plates. All compounds were dissolved in DMSO at a concentration of either 100 mM or 50 mM prior to cell treatment. The cells were grown for 24 h and then treated with compounds at concentrations ranging from 0.04 to 100 μM and incubated for 48 h in 200 μL media. 20 μL of MTT reagent in serum free medium (5 mg/mL) was added to each well and incubated further for 2 h. Media was removed, and the resulting formazan crystals were re-solubilized in 200 μL of DMSO. A490 was measured using a Thermomax Molecular Device plate reader. The experiments were performed in quadruplicate and repeated at least twice for each compound per cell line. Cells treated with 0.1% DMSO were used as a control, and 1 μM phenyl arsine oxide (PAO) was used as a positive killing control.

U373 glioblastoma cells = assay: MTT antiproliferative assay, U373; type: cell-based, human; conditions: Homo sapiens, U373 MG; Table 2; 48 h, MTT; read-out: GI50 in vitro values, U373
Description: as §1, §2
as §3, with “Cells treated with 0.1% DMSO were used as a control, and 1 μM phenyl arsine oxide (PAO) was used as a positive killing control.” left out

[4] = tested on: UM-SCC10A head and neck cancer cells; assay: MTT antiproliferative assay, UM-SCC10A; type: cell-based; conditions: UMSCC-10A, Table 1A, 48 h, read-out: Concentration required to reduce the viability of cells by 50%, UM-SCC10A
Description: as §1

With `O=C(c1ccccc1)c1[nH]c2[nH]cnc(=O)c2c1-c1cc(Br)cc(Br)c1` [Rig8, 6-Benzoyl-5-(3,5-dibromophenyl)-1H-pyrrolo[2,3-d]pyrimidin-4(7H)-one] the IC50 [1] was 110 nM, the GI50 [2] was 95 ± 10 nM and the GI50 [3] was 30 nM. It also gave a GI50 (U373 glioblastoma cells) of 30 nM and an IC50 [4] of 90 nM.
